# Laboratory results reported in US20240058335A1, “METHODS FOR TREATMENT OF CANCER USING ABL INHIBITORS AND DRUGS TARGETING THE MEVALONATE PATHWAY” (Duke University, priority 2021, published 2024).
# What was measured:
# PC9 cells = settings: read-out: Calculated IC50, dose-response assay
# H358 cells = test: Cell viability dose-response assay (CellTiter-Glo), IC50 calculation; type: cell-based, human; settings: H358; dose-response assay; read-out: Calculated IC50
# HCC1954-LCC1 cells = test: Intracranial injection model of HER2+ breast cancer brain metastasis; type: in vivo, mice; settings: oral gavage
# Protocol: Nude mice were injected intracranially with HCC1954-LCC1 cells on Day 0. On Day 10, mice were divided evenly between treatment groups (Vehicle or GNF5) based on tumor burden and weight. Tumors were monitored weekly by BLI until experimental endpoint (Day 55). (FIG. 15A) Overall survival curve of nude mice injected intracranially with HCC1954-LCC1 and treated with vehicle (n=9) or GNF5 (n=10) and representative BLI images of mice at day 33 post-injection. (FIG. 16B) Overall survival curve of nude mice injected intracranially with HCC1954-LCC1 ABL1/2 KO (n=15) or control cells (n=15) and representative of BLI images of mice at day 21 post-injection. Statistical analysis was performed using Log-rank (Mantel-Cox) test.
# [1] = system: lung cancer cells (PC9, PC9 GR4, PC9 BrM3, H460, H358); test: 72 hr growth inhibition / cell viability assay with drug combinations and metabolite rescue; type: cell-based, human; settings: PC9-BrM3, sub-therapeutic doses, 72 hrs
# PC9 GR4 cells = test: Cell viability dose-response assay (CellTiter-Glo), IC50 calculation; type: cell-based, human; settings: PC9 GR4; dose-response assay; read-out: Calculated IC50
# [2] = system: lung cancer cells (PC9, PC9 GR4, H460, H358); test: Seahorse XF Analyzer Mito Stress Test (OCR: basal respiration, maximal respiration, ATP production); type: cell-based, human; settings: IC50 doses, 24 hours; PC9, PC9 GR4, H460, H358
# Text: (FIGS. 2A-2D) Seahorse XF Analyzer Mito Stress Test analysis of mitochondrial basal respiration, maximal respiration, and ATP production as measured by changes in oxygen consumption rate (OCR). […] (FIG. 2E) Mitochondrial basal respiration, maximal respiration, and ATP production as measured by Seahorse XF Analyzer's Mito Stress Test for PC9 cells harboring shRNAs against ABL1/ABL2 (shAA) and non-targeting control (shSCR). (FIGS. 2F-2G) Mitochondrial ROS (MitoROS) release as measured by FACS analysis of median fluorescent intensity (MFI) using Mitosox probe. […] Data are mean±SEM. […] Seahorse XF Analyzer Mito Stress Test analysis of mitochondrial basal respiration, maximal respiration, and ATP production as measured by changes in oxygen consumption rate (OCR) in the indicated lung cancer cells: (FIG. 8A) PC9; (FIG. 8B) PC9 GR4; (FIG. 8C) H460. […] Doses correspond to IC50 dose for each drug in the corresponding cell line. In each graph, for each of Basal Respiration, Maximal Respiration, and ATP production, data is shown from left to right for DMSO, GNF5, and Nilotinib. […] Cells were treated with IC50 doses for 24 hours (n=3). Data are mean±SEM. […] SEAHORSE MEASUREMENTS. Basal and maximal oxygen consumption rate and ATP production were measured using a Mito Stress test Kit and XF96 Extracellular Flux Analyzer (Seahorse Bioscience), according to manufacturer's instructions. Cells were plated in XF96 plates at 10,000 cells per well on Day 0. […] The plate was incubated in a non-CO2 incubator at 37° C. for 1 hr to equilibrate.
structure (smiles),measurement,setting,value
O=C(NCCO)c1cccc(-c2cc(Nc3ccc(OC(F)(F)F)cc3)ncn2)c1 [GNF5],IC50,PC9 cells,10 µM
same,IC50,H358 cells,15 µM
same,animal survival,HCC1954-LCC1 cells,markedly increased animal survival
same,metastatic outgrowth and brain colonization (BLI),HCC1954-LCC1 cells,impaired metastatic outgrowth and colonization of the brain parenchyma
same,cell survival in the presence of statins,[1],decreased cell survival
same,IC50,PC9 GR4 cells,10 µM
same,"mitochondrial function (basal respiration, maximal respiration, ATP production; OCR)",[2],greatly decreased
